In test [1] the test system is colorectal carcinoma (HCT116). The experiment in a line: Cytotoxic MTT assay, HCT116. The format is cell-based, human. The procedure: (§1) MTT protocol was performed to study the viability of cells after treatment with the tested compounds. The studied cell lines (A549 and HCT116) were cultured and grown in RPMI‐1640 media, while HFB4 cells were reserved in DMEM‐F12 media. Both media were supplemented with 10% FBS, 1% L‐glutamine, and 1% antibiotic–antimycotic mixture. The cell lines were grown at conditions of 37 °C and 5% CO2. 10 × 10^3 of A549, and HCT116 cells and the same count of normal melanocytes (HFB4) were cultured in a 96‐well plate. The selected cultured cells were kept at 37°C and 5% CO2 overnight. Then, the medium was discarded after 24 h of incubation, and 100 µL from different concentrations of the studied compounds dissolved in fresh medium without serum, with final concentrations of 100, 50, 25, 12.5, 6.25, 3.125, 1.56, and 0.78 µg/mL was added. The treated cells were then incubated for 48 h. After that, 50 µL of MTT was added into each well for 4 h for the formazan crystals to be formed. Finally, 200 µl of 10% sodium dodecyl sulphate (SDS) was added to each well, and plates were kept at room temperature overnight to allow the reaction to be stopped. The optical density at 575 nm was read using a microplate multi-well reader, and the percentage of cell viability was calculated. The dose–response curve was drawn to calculate the IC50 values for each compound using the prism GraphPad 5 program, [84]. 5 Fluorouracil, a commercial anticancer drug was used as a reference drug (positive control). Negative untreated cell control was used in this assay.

Test [2] concerns normal human skin melanocyte cell line (HFB4). Briefly: Cytotoxic MTT assay, normal HFB4 cells. The format is cell-based. The following applies: 48 h treatment. The procedure: as §1
The test system of a further test is Bax. The experiment in a line: RT-PCR gene expression, Bax, in HCT116. The format is cell-based, human. The settings on record: HCT116, 6.76 µg/mL, 48 h, relative to untreated control. The procedure: (§2) In this current research, relative gene expression related to apoptosis should be studied well because they were very interesting to understand the effect of our selected compound on this important biological process. HCT116 cells were treated with chalcone 7f (6.76µg/mL) for 48 h, and then subjected to qPCR analysis regarding control samples. The effect of chalcone 7f on the expression level of (Bax, p53, Bcl2, and CDK4) genes was assessed using the qPCR technique. […] As indicated in this schematic diagram, the expression of apoptotic genes (Bax and P53) was enhanced by the effect of chalcone 7f to reach (3.662, and 5.435) respectively, relative to the control.
(§3) Total RNA was extracted from the compound 7f-treated HCT116 cells and the untreated cells using the RNA Purification Kit GeneJET (Thermo scientific, ON, Canada) 0.1 µg of the extracted RNA was reverse transcribed into complementary DNA (cDNA) using High-Capacity cDNA Reverse Transcription Kit (Thermo Scientific, ON, Canada). qPCR was done using Brilliant SYBR Green qPCR master mix (Applied Biosystems, San Francisco, CA, USA) in One Step Plus Real-Time PCR System (Applied Biosystems, San Francisco, CA, USA). […] The relative gene expression was determined using the 2^−ΔΔCt equation after normalization to the expression of β-actin (housekeeping gene) (Qiagen, CA, USA)(10 pmol/µL)[85], [86]. […]

The subject of a further test is Bcl2. Briefly: RT-PCR gene expression, Bcl2, in HCT116. The settings on record: HCT116, 6.76 µg/mL, 48 h, relative to untreated control. The format is cell-based, human. The procedure: as §2, §3
In test [3] the test system is HCT116 cells. The experiment in a line: Flow cytometric analysis of cell cycle. It is filed as cell-based, human. The following applies: HCT116, 6.76 µg/mL, 48 h. The procedure:
(§4) Chalcone 7f was selected for more investigations, in attempts to find its molecular action on cancer cells. It illustrated high and very interesting cytotoxicity toward the tested colon cancer cell line (HCT116) as mentioned in the above MTT assay data (Table 1). A flow cytometric report was utilized in this recent paper to investigate the effect of our novel acrylonitrile compound 7f on the cell cycle, HCT116 cells were treated with compound 7f at a dose of (6.76 µg/mL) for 48 h and subjected to flow cytometric analysis.
In this study, non-treated HCT116 cells were used as a negative control. After the incubation period of 48 h, HCT116 treated cells were centrifuged at 1,200 rpm at 4 °C for 10 min. After disposing of the supernatant, the cell pellet was suspended in phosphate-buffered saline (PBS) and then centrifuged at 1200 rpm for 10 min. 70% cold ethanol was added overnight to allow the fixation of the cell pellet. After the step of centrifugation, the propidium iodide (PI) mixture was added to the cell pellet for 30 min at room temperature in the darkness. Subsequently, cells were subjected to Epics XL-MCL flow cytometer (BeckmanCoulter, Miami, FL) for analysis of DNA content. The percentage of cells in different phases of the cell cycle was analyzed by Multicycle software (Phoenix Flow Systems, San Diego, CA).
A general note: Flow cytometry measures light scatter and fluorescence of single cells or particles in a stream.

For test [4], the system named is HCT116 cells. The experiment in a line: Flow cytometric analysis of apoptosis (Annexin V-FITC/PI). It is filed as cell-based, human. The settings on record: HCT116, 7f treated. The procedure:
as §4
The percentage of apoptotic cells was detected using Annexin V-FITC kit catalogue number (#K101-25). Briefly, 5 × 10^5 of HCT116 cells were collected by centrifugation. Then, the cell pellet was suspended in 500 µL of 1X Binding Buffer. Afterward, 5 µL of Annexin V-FITC and 5 µL of propidium iodide were added to cells and kept at room temperature for 5 min in the dark[89]–[91]. Finally, the percentage of the apoptotic cells was detected by flow cytometry using the FITC signal detector(usually FL-1) and PI staining by the phycoerythrin emission signal detector (usually FL-2).

SMILES strings stand for the structures. Values after ≈ are worked out from the molar mass of the structure shown.

As a reminder, the IC50 is the midpoint of a concentration-inhibition curve. Read a low IC50 as greater potency.

For the compound `N#C/C(=C\c1cn(-c2ccccc2)nc1-c1ccc([N+](=O)[O-])cc1)C(=O)c1c[nH]c2ccccc12` [Compound 7f, (E)-2-(1H-Indole-3-carbonyl)-3-(3-(4-nitrophenyl)-1-phenyl-1H-pyrazol-4-yl)acrylonitrile], the “Selectivity index (SI) = IC50 in normal cells/IC50 in tumor cells” value in test [1] (HFB4 versus HCT116) worked out at 8.4. The IC50 in test [1] (Homo sapiens, HCT-116, MTT, 48 h treatment) was found to be 6.76 µg/mL (≈ 14.7 µM); in test [2] it was 56.7 µg/mL (≈ 123 µM). Moreover, the “RT-PCR fold change Bax” value with Bax is 3.662 fold. Moreover, the “RT-PCR fold change bcl2” value with Bcl2 is given as 0.351 fold. Further, the “DNA content in G2/M phase (%DIP G2/M)” value in the test with HCT116 cells [3] (control 13.68%) is on record as 2.55%. In the test on HCT116 cells [3] (control 41.04%), the “cells in S phase (%DIP S)” value was found to be 46.12%. In the test on HCT116 cells [3] (control 45.28%), the “cell accumulation in G1 phase (%DIP G1)” value was determined as 51.33%. Moreover, the early apoptotic induction in the test on HCT116 cells [4] (control 0.32%) was 21.38%. In the test on HCT116 cells [4] (control 1.12%), this compound displayed a necrosis of 6.82%.

(Values after article PMC10728220, “Novel 3-(pyrazol-4-yl)-2-(1H-indole-3-carbonyl)acrylonitrile derivatives induce intrinsic and extrinsic apoptotic death mediated P53 in HCT116 colon carcinoma” (Scientific Reports, 2023).)
